Reference: the Biogen ADME set (Fang et al. 2023)
In brackets after ≈: the same amount, converted by molar mass.

Conditions: for aqueous solubility: pH 6.8

Compound | MDR1-MDCK efflux ratio | intrinsic clearance, human liver microsomes [mL/min/kg] | intrinsic clearance, rat liver microsomes [mL/min/kg] | aqueous solubility [µg/mL] | fraction unbound, rat plasma | fraction unbound, human plasma
CCN(CC)S(=O)(=O)c1ccc2c(c1)CCN2CC(=O)NCc1ccccc1F | 9.92 | 337 | 1800 | 43.7 (≈ 104 µM) |  | 
Cc1cc(Nc2cc(N)ncn2)c(=O)n2c1C(=O)NC21CCCCC1 | 25.5 | ≤ 4.74 | 24.8 |  |  | 
Cc1ccncc1-c1ccc(-c2ccn[nH]2)cc1 | 0.59 | 10.5 | 65.8 | 20.5 (≈ 87 µM) |  | 
O=C(Nc1c(F)cccc1Oc1ccccc1)c1cnccn1 |  | 34.6 | 1080 |  |  | 
Cc1ccc(-n2nc(C(C)(C)C)cc2NC(=O)Nc2ccc(OCCN3CCOCC3)c3ccccc23)cc1 | 6.55 | 373 | 704 | 16.6 (≈ 31.6 µM) |  | 
CCN(c1cc(-c2ccc(CN3CCOCC3)cc2)cc(C(=O)NCc2c(C)cc(C)nc2O)c1C)C1CCOCC1 | 60.3 | 131 | 525 | 49.2 (≈ 85.9 µM) |  | 
CSc1ncccc1C(=O)Nc1ccc(-c2nnc(C)[nH]2)cc1 | 6.96 | ≤ 4.74 | 44.1 |  |  | 
COc1cc2c(cc1OC)CN(C(=O)C1CCCN(C(=O)c3ccc(Cl)cc3)C1)CC2 (configuration not stated) | 10.1 |  |  |  |  | 
Cc1cc(C)n(-c2ccc(CNC(=O)C3CCC3)cn2)n1 | 1.08 | 9.73 | 571 | 39.7 (≈ 140 µM) |  | 
CN(CC(=O)Nc1cc(F)cc(F)c1)c1ccnc(C(N)=O)c1 | 12.3 | ≤ 4.74 | 42.6 | 45.9 (≈ 143 µM) |  | 
Cc1cc(-c2nccs2)nc(CC2CCNCC2)n1 | 20.1 | ≤ 4.74 | 38.8 | 36.5 (≈ 133 µM) |  | 
O=S(=O)(c1ccccc1)N(CC(F)(F)F)c1ccc(C(O)(C(F)(F)F)C(F)(F)F)cc1 |  | 7.61 | 14.6 |  |  | 
COc1cccc(OCCCN)c1-c1cc(Nc2cnc(C#N)cn2)n[nH]1 | 17.5 | ≤ 4.74 | 512 | 39.1 (≈ 107 µM) |  | 
CN(c1ncnc2c1cnn2CCO)C1CCCCC1 | 0.672 | ≤ 4.74 | 77.5 | 44.7 (≈ 162 µM) |  | 
O=C(CSc1ncn[nH]1)N(C1CCCCC1)C1CCCCC1 | 2.57 | 120 | 1410 | 35.7 (≈ 111 µM) |  | 
Cc1cccc(NC(=O)N2CCC(N3CC=CC3)CC2)c1Cl | 0.517 | 9.11 | 1040 |  |  | 
O=C(C1CC1c1ccccc1F)N1CCC(n2c(=O)[nH]c3ccccc32)CC1 (configuration not stated) |  | 47.2 | 1190 | 49.9 (≈ 131 µM) |  | 
O=C(Nc1ccccc1-n1ccnc1)c1cccs1 | 0.74 | 11 | 39.2 | 77.2 (≈ 287 µM) |  | 
Cc1ccc(-c2cnc3ccccc3n2)cc1N |  | 256 | 203 |  |  | 
Cc1cc(CNC(=O)N(C)Cc2c(C)nn(C)c2C)cnc1C | 94.1 | ≤ 4.74 | 112 |  |  | 

Compound | MDR1-MDCK efflux ratio | intrinsic clearance, human liver microsomes [mL/min/kg] | intrinsic clearance, rat liver microsomes [mL/min/kg] | aqueous solubility [µg/mL] | fraction unbound, rat plasma | fraction unbound, human plasma
COc1ccc(CCn2c(C3CC3)n[nH]c2=O)cc1 | 1 | 5.56 | 366 | 28.4 (≈ 109 µM) |  | 
CC(C)NCC(O)COc1cccc2ccccc12 (configuration not stated) |  |  |  |  | 0.223 | 
COc1ccc(CCn2c(C)c3c(=O)n(-c4nc5ccccc5s4)[nH]c3cc2=O)cc1 |  | 53.7 | 892 | 22.5 (≈ 52.1 µM) |  | 
O=C(NCc1ccc(CO)c(F)c1)Nc1ccccc1 | 0.427 | ≤ 4.74 | 20.8 | 35.2 (≈ 128 µM) |  | 
c1cc(CN2CCC(c3ccn[nH]3)CC2)ccn1 | 1.05 | 5.91 | 32.1 | 28.2 (≈ 116 µM) |  | 
Cc1cccnc1CN1CCC(O)(c2ccccc2)CC1 | 0.958 | 4.93 | 684 |  |  | 
CCc1ccccc1NC(=O)CCn1ccnc1-c1ccc2c(c1)OCO2 | 22.1 | 126 | 891 | 42 (≈ 116 µM) |  | 
O=C(CCCc1nc2ccccc2[nH]1)N1CCCC1 | 17.5 | ≤ 4.74 | 85 | 35.8 (≈ 139 µM) |  | 
NC(=O)c1cnn(Cc2cccc(F)c2)c1 |  | ≤ 4.74 | ≤ 10.7 |  |  | 
O=C(NCCc1cnn[nH]1)C1Cc2ccccc2C1 | 2.47 | ≤ 4.74 | ≤ 10.7 |  |  | 
CN(C)c1cnn(CCC(C#N)(c2ccccc2)c2ccccc2)c(=O)c1 | 2.74 | 124 | 1260 | 22.2 (≈ 62 µM) |  | 
Cc1ccc(NC(=O)c2nn(-c3ccccc3)nc2C)cc1 |  |  |  | 0.29 (≈ 0.992 µM) |  | 
O=C(Nc1ccc(Cl)cn1)C1(c2cccc(Cl)c2)CC1 | 0.574 |  |  | 0.33 (≈ 1.07 µM) |  | 
COc1cc2nc(-c3ccc(N4CCN(C)CC4)cc3)nc(NCCN3CCOCC3)c2cc1OC |  | 8.7 | 90.9 |  |  | 
COc1cc(-c2cnc(NC3CC3)nc2-c2cccs2)nc(OC)n1 |  | 34.7 | 485 |  |  | 
COc1ccc(-c2nn(C)c3ccccc23)c(OC)c1OC | 0.515 | 95.4 | 1270 |  |  | 
C=CC(=O)N1CCC([C@@H]2CCNc3c(C(N)=O)c(-c4ccc(Oc5ccccc5)cc4)nn32)CC1 | 50.8 | 57.8 | 573 |  | 0.0171 | 0.0931
Cc1ccc(C(=O)N2CCC(Cc3ccccc3-c3ccccc3)(C(=O)N(C)C)CC2)s1 | 1.12 | 768 | 1520 | 23.8 (≈ 53.3 µM) | 0.00257 | 0.00509
Cc1nc(NC2(c3cccc(Cl)c3)CC2)c2c(C)noc2n1 | 0.871 | 9.21 | 254 | 41.4 (≈ 131 µM) |  | 
C#CCNC(=O)CN1C(=O)c2ccccc2C1=O |  |  |  | 38.9 (≈ 161 µM) |  | 

Compound | MDR1-MDCK efflux ratio | intrinsic clearance, human liver microsomes [mL/min/kg] | intrinsic clearance, rat liver microsomes [mL/min/kg] | aqueous solubility [µg/mL] | fraction unbound, rat plasma | fraction unbound, human plasma
Cc1nnc2ncc(-c3cccc(-c4ccnn4C)c3)cn12 | 0.929 | ≤ 4.74 | 31 |  |  | 
COc1ccc(-c2cn3c4ccccc4nc3n2CCO)cc1 | 0.389 | 42.2 | 1190 | 47 (≈ 153 µM) |  | 
C=CCn1cc(CNCc2csc3ccc(Cl)cc23)c(C)n1 |  | 347 | 3200 | 21.4 (≈ 64.5 µM) |  | 
O=C(c1cc(-c2ccccc2)[nH]n1)N1CCc2ccccc21 |  |  |  | 0.84 (≈ 2.9 µM) |  | 
CC1(C)Cc2cc(NC(=O)c3cnn4cccnc34)c(N3CCN(CC(F)F)CC3)nc2O1 | 7.71 | 18.6 | 121 | 76.9 (≈ 168 µM) |  | 
CN(C)S(=O)(=O)CCCN1CCC(CCC(N)=O)CC1 | 0.425 | ≤ 4.74 | ≤ 10.7 |  |  | 
O=C(NCc1ccc(F)cc1)c1ccc(-n2ccnc2)nc1 | 1.04 | ≤ 4.74 | 30 | 70.8 (≈ 239 µM) |  | 
Cn1cc(CN2CCCC(c3ccnc(Nc4cnccn4)c3)C2)cn1 (configuration not stated) | 6.36 | 7.74 | 179 |  |  | 
Cc1ccc2oc([C@H]3CCN(Cc4ccc(C#N)cc4)C3)nc2c1 |  | 41.5 | 351 | 5.4 (≈ 17 µM) |  | 
CCOCCC(=O)N1CCC2(CCCN(C)CC2)CC1 | 2.92 | ≤ 4.74 | 30.6 |  |  | 
CC(C)C(=O)N1CCC(Nc2ncnc3ccsc23)CC1 | 6.55 | ≤ 4.74 | 19.2 | 48 (≈ 158 µM) |  | 
C[C@@H](NC(=O)N1CCC2(CCOCC2)CC1)c1ccc(F)cc1 | 2.32 | 6.19 | 237 |  |  | 
Cc1ccc(-c2nc(NCc3ccco3)ncc2-c2cc(C)no2)cn1 | 0.989 | 87.5 | 492 | 10.3 (≈ 29.7 µM) |  | 
COc1cc(OC)c(OC)cc1CNC(C)(C)C | 4.78 | ≤ 4.74 | 110 |  |  | 
COc1ccc(C)cc1-c1cccnc1O | 1.08 | 5.37 | 26.5 | 32.8 (≈ 152 µM) |  | 
NCCCc1nc(-c2ccncc2)cs1 |  | 29.3 | 239 |  |  | 
COc1ccc2nc(C(=O)Nc3cnc4c(cnn4C(C)C)c3)ccc2c1 | 0.464 |  |  | 0.15 (≈ 0.415 µM) |  | 
Cn1ccc(CSc2n[nH]c(-c3cc(F)cc(F)c3)n2)n1 | 0.58 | 12.9 | 131 |  |  | 
c1cnc(NCCc2cccc3cccnc23)nc1 |  | 105 | 879 | 37 (≈ 148 µM) |  | 
